Source: US20210115104A1, “AMYLIN ANALOGUES” (Zealand Pharma A/S, priority 2015, published 2021)
*1 amine or outer side, *2 acyl side, *3 side chain or, on linkers, in order; H or OH if unused. Where a SMILES comes first, the peptide text is derived from it. Bridges are numbered along the chain shown (N, C = ends). [ ]: non-standard residue; d: D form. The star is where a group is joined. C20 diacid = O=C(O)CCCCCCCCCCCCCCCCCCC(=O)*; γGlu = O=C(O)[C@H](CCC(=O)[*:2])N[*:1]; Hyp = O=C(O)[C@@H]1C[C@@H](O)CN1; NMeI = CC[C@H](C)[C@H](NC)C(=O)O; Aad = N[C@@H](CCCC(=O)O)C(=O)O; Sar = CNCC(=O)O

What was measured:
[1] = Assessment of chemical stability (RP-HPLC normalized purity); assay type: physicochemical; details: 7 days, 40° C., Table 1
Summary of the method: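 Purity after 7 days at 40° C is expressed relative to T=0 (set to 100) for each pH. Samples at 0.2 mg/ml, pH 4, 6, 7.5 or 9, analyzed by RP-HPLC with UV 220 nm on C8 (ammonium formate) or C18 (TFA) gradients.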

[2] = Assessment of physical stability (Thioflavin T fibrillation); assay type: physicochemical; set-up: key: FND = fibrillation not detected; FD = fibrillation detected; details: 1 mg/ml, 40° C., ThT
Summary of the method: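 Fibrillation lag-time, in hours, taken where regressions of the initial stable phase and the growth phase intersect. ThT (40 μM) fluorescence monitored at 40 °C for 96 h, 10-min reads each preceded by 300 s mixing. Peptide at 1 mg/ml in 50 mM buffers: phosphate or histidine pH 7.0, acetate pH 4.0.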

- Normalized purity after 7 days, 40° C., pH 4 ([1]; pH 4, 0.2 mg/ml): A (A = >90%)
- Normalized purity after 7 days, 40° C., pH 6 ([1]; pH 6, 0.2 mg/ml): A (A = >90%)
- Normalized purity after 7 days, 40° C., pH 7.5 ([1]; pH 7.5, 0.2 mg/ml): B (B = 70-90%)
- Normalized purity after 7 days, 40° C., pH 9 ([1]; pH 9, 0.2 mg/ml): B (B = 70-90%)
- Fibrillation pH 4.0 (Ac) ([2]; 50 mM acetate buffer pH 4.0, 96 hours): FND
- Fibrillation pH 7.0 (His) ([2]; 50 mM histidine buffer pH 7.0, 96 hours): FD
- Fibrillation pH 7.0 (Phos.) ([2]; 50 mM phosphate buffer pH 7.0, 96 hours): FD
SMILES: CC[C@H](C)[C@@H](C(=O)N[C@@H](CC(C)C)C(=O)N[C@@H](CO)C(=O)N[C@@H](CO)C(=O)N[C@H](C(=O)N[C@@H](CCC(=O)O)C(=O)N[C@H](C(=O)NCC(=O)N[C@@H](CO)C(=O)N[C@@H](CCCC(=O)O)C(=O)N[C@H](C(=O)N1C[C@H](O)C[C@H]1C(N)=O)[C@@H](C)O)C(C)C)[C@@H](C)O)N(C)C(=O)[C@H](C)NC(=O)CN(C)C(=O)[C@H](Cc1ccccc1)NC(=O)[C@H](CO)NC(=O)[C@H](CO)NC(=O)[C@H](CCCNC(=N)N)NC(=O)[C@@H](NC(=O)[C@H](CC(C)C)NC(=O)[C@H](Cc1ccccc1)NC(=O)[C@H](Cc1c[nH]cn1)NC(=O)[C@H](C)NC(=O)[C@H](CC(C)C)NC(=O)[C@H](CCCNC(=N)N)NC(=O)[C@H](CCC(=O)O)NC(=O)[C@@H](NC(=O)[C@H](C)NC(=O)[C@@H]1CSSC[C@H](NC(=O)[C@H](CCCNC(=N)N)NC(=O)CC[C@H](NC(=O)CCCCCCCCCCCCCCCCCCC(=O)O)C(=O)O)C(=O)NCC(=O)N[C@@H]([C@@H](C)O)C(=O)N[C@@H](C)C(=O)N[C@@H]([C@@H](C)O)C(=O)N1)[C@@H](C)O)[C@@H](C)O [Compound 12, [19CD]-isoGlu-R-C( )-GTAT-C( )-ATERLAHFLTRSSF-Gly(Me)-A-Ile(Me)-LSSTEVGS-Aad-T-Hyp-NH2] ({C20 diacid-γGlu}-RCGTATCATERLAHFLTRSSF[Sar]A[NMeI]LSSTEVGS[Aad]T[Hyp]-NH2; disulfide 2-7)
